Laboratory results as given in patent US11191735B2, “Arginine silicate for periodontal disease” (NUTRITION 21, LLC, priority 2015, dated 2021).
Like-named read-outs stand apart in the source and are kept apart here. Marks after values point to notes of the source that are not given here.

Legend:
[1] = tested on: experimental periodontal disease (ligature model); settings: for ICI Dense, animals / ICI Little visible, animals / ICI Slightly visible, animals: n=13
Method: (§1) All animals and surgical procedures were handled in accordance with guidelines of the Chancellor's Animal Research Committee of the Office for Protection of Research Subjects at the University of Inonu, Malatya, Turkey (2013/A-12). Fifty-two (2-month-old) female Sprague-Dawley rats weighing […] (Experimental Research Center of Inonu University) were kept in temperature-controlled cages (approximately 25° C.), exposed to a 24-hr light-dark cycle of equal time, and had free access to water and food ad libitum.
(§2) The fifty-two rats were randomly divided into four groups: the non-ligated treatment (Control) group (n=13), the ligature-only (L) group (n=13), the ligature plus ASI (“arginine-silicate-inositol;” Nutrition 21, NY, USA, see, e.g. U.S. Pat. Nos. 5,707,970 and 7,576,132) with dose of 1.81 mg/kg of diet group (designated “ASI I”), (n=13), the ligature plus ASI with dose of 3.62 mg/kg of diet group (designated “ASI II”) (n=13).
(§3) For all the studies described herein, the well-characterized ligature model of placing a sterile wire ligature around the crown of the right first maxillary molar was utilized. Rats were anesthetized with Rompun®, 10 mg/kg ve Xylazine®, 40 mg/kg ketamin, and a sterile 28-gauge wire ligature was placed around the cervical portion of the right first molar. Animals continued to receive basal diet or basal diet supplemented with 1.81 or 3.62 […] (Proctor et al., 2005) for 8 weeks before ligature placement.
A histologic evaluation was performed by a single examiner (I.O.) who was masked to the identity of the samples. The specimens were fixed in a 10% neutral-buffered formalin solution and demineralized in an aqueous 10% formic acid solution. The specimens were then dehydrated, embedded in paraffin, and sectioned along the molars in a mesiodistal plane for hematoxylin and eosin staining, as described by Toker et al. Light microscopy (Nikon, Tokyo, Japan), and assessment was performed on the two sections with a thickness of about […], corresponding to the buccal and lingual areas between the first and second molars where ligatures had been placed.
The areas of alveolar bone and interdental septum were analyzed under light microscopy, considering parameters including inflammatory cell infiltration (“ICI”) of the periodontal tissues, existing resorption lacunae (osteoclast surfaces), osteoblastic activity (forming surfaces) and the number of osteoclasts. […] Osteoclasts were counted based on their morphology.

[2] = tested on: experimental periodontal disease (ligature model)
Method: as §1, §2, §3
Bones were imaged by micro-computed tomographic (μCT) scanning (SkyScan1172 Compact MKT (Kontich, Belgium)) at 16-μm resolution, and volumetric data were converted to DICOM format and imported in the Recon 1.6.9.4 SkyScan (Contich, Belgium) to generate 3D and multiplanar reconstructed images. An oral and maxillofacial radiologist (ST), blinded to the specific animal treatment, evaluated the μCT images of all animals to identify and score bony changes and performed all linear measurements using Recon software tools.
To quantify the amount of bone loss induced by experimental periodontal disease (PD), the imaged volume was oriented with the nasal cavity floor parallel to the horizontal plane and the midpalatal suture parallel to the midsagittal plane. Then the volume was angled such that the long axis of the distal root of the first molar (D1) and the mesial root of the second molar (M2) were vertical to the horizontal plane. Then the distance between the cementoenamel junction (CEJ) and the alveolar bone crest (ABC) was measured at the center of D1 and M2. To quantitatively assess changes in the width of the buccal alveolar outline on axial slices, the imaged volume was oriented such that the floor of the nasal cavity was parallel to the horizontal plane and the midpalatal suture was parallel to the midsagittal plane. Then the shortest distance from the buccal surface of the root to the buccal outline of the alveolar ridge was measured for the mesial and distal roots of the first and second molars at the level of the hard palate.

[3] = tested on: early to mild periodontitis
From the text: The study group comprises ten systemically healthy subjects with early to mild periodontitis. […] Prior to any treatment procedure, oral hygiene instructions (OHI) are given. Each quadrant of the subjects is randomly assigned to one of the following groups: (A) scaling and root planning combined with daily administration of arginine silicate post-treatment, (B) scaling and root planning alone, (C) daily administration of arginine silicate alone, and (D) OHI alone.
Subjects are re-examined at one week, four weeks, eight weeks, and 12 weeks.

[4] = tested on: gingivitis; experiment: Study in patients with gingivitis (Example 4); type: in vivo, human
Method: 20 patients with gingivitis (having at least three of the following symptoms: swollen gums, bright red or purple gum tissue, gum tissue that is sensitive to touch, bleeding gums, bad breath) are studied. Five patients are administered once-daily arginine silicate (I); five patients are topically administered once-daily arginine silicate to the oral cavity (II); five patients are administered chlorhexidine mouthwash for twice-daily use (III); and five patients are administered standard over-the-counter mouthwash for twice daily use (IV).
Patients are evaluated at four weeks, eight weeks, and twelve weeks. […] The trial is ceased at twelve weeks to avoid side effects from the chlorhexidine treatment.

[5] = tested on: IL-1β, MMP-8, RANK, RANKL, OPG, MPO expression levels from periodontal tissue; settings: for IL-1β protein level / MMP-8 protein level / MPO protein level / OPG protein level / RANK protein level / RANKL protein level: control = 100
From the text: FIG. 1B depicts western blot strips Il-1B, MMP-8, RANK, RANK-L, OPG and MPO expression levels from periodontal tissue.
as §1, §2, §3
(§4) Animals were monitored weekly to ensure presence of the ligature, and the ligature was adjusted if necessary. At the end of the experiment, animals were euthanized, blood was collected via cardiac puncture, and serum biomarkers including Ca, Mg, phosphorus, alkaline phosphatase, and CRP (C-reactive protein) were measured. Whole maxillas were removed, placed in 10% formalin for 48 hours, and stored in 70% ethanol.

[6] = tested on: experimental periodontal disease (ligature model); settings: for ALP (serum) / CRP (serum) / Ca (serum) / P (serum): rats
Method: as §1, §2, §3, §4

[7] = L + ASI I: ligature plus ASI, 1.81 mg/kg of diet
[8] = L + ASI II: ligature plus ASI, 3.62 mg/kg of diet

For arginine silicate inositol [ASI], the “ICI (inflammatory cell infiltration)” value ([1]; ASI treatment (both doses)) was “significantly reduced”, the “ICI Dense, animals” value ([1]; L + ASI I: 1.81 mg/kg of diet) was 4 (%30.8) n (%) and the “ICI Little visible, animals” value ([1]; L + ASI I: 1.81 mg/kg of diet) was 0 (%0) n (%). For the same substance, the “ICI Slightly visible, animals” value ([1]; L + ASI I: 1.81 mg/kg of diet) was 9 (%69.2) n (%), the “ICI Dense, animals” value ([1]; L + ASI II: 3.62 mg/kg of diet) was 2 (%15.4) n (%) and the “ICI Little visible, animals” value ([1]; L + ASI II: 3.62 mg/kg of diet) was 0 (%0)^ n (%). For the same substance, the “ICI Slightly visible, animals” value ([1]; L + ASI II: 3.62 mg/kg of diet) was 11 (%84.6) n (%), the “bone mineral density with respect to the controls and the ASI I group” value ([2]; ASI II (3.62 mg/kg of diet)) was “significantly increased” and the “BMD (bone mineral density)” value ([2]; L + ASI I: 1.81 mg/kg of diet) was 0.78 ± 0.07 g/cm^2. For the same substance, the “DCEJ-DCB/DCEJ-DRAP, rate of bone loss” value ([2]; L + ASI I: 1.81 mg/kg of diet) was 0.41 ± 0.12 ^, the “MCEJ-MCB/MCEJ-MRAP, rate of bone loss” value ([2]; L + ASI I: 1.81 mg/kg of diet) was 0.49 ± 0.10 ^a,b and the “RF-RFCB/RF-RFAP, rate of bone loss” value ([2]; L + ASI I: 1.81 mg/kg of diet) was 0.21 ± 0.04 ^a,b. For the same substance, the “BMD (bone mineral density)” value ([2]; L + ASI II: 3.62 mg/kg of diet) was 0.85 ± 0.06 ^b g/cm^2, the “DCEJ-DCB/DCEJ-DRAP, rate of bone loss” value ([2]; L + ASI II: 3.62 mg/kg of diet) was 0.42 ± 0.08 ^ and the “MCEJ-MCB/MCEJ-MRAP, rate of bone loss” value ([2]; L + ASI II: 3.62 mg/kg of diet) was 0.50 ± 0.10 ^a,b. The “RF-RFCB/RF-RFAP, rate of bone loss” value ([2]; L + ASI II: 3.62 mg/kg of diet) was 0.22 ± 0.05 ^a,b, the “improvement in periodontal symptoms” value ([3]; group (A): scaling and root planning combined with daily arginine silicate, eight and twelve weeks) was “significant improvement” and the “improvement in periodontal symptoms” value ([3]; group (A): scaling and root planning combined with daily arginine silicate, four weeks) was “significant improvement”. The “improvement in periodontal symptoms” value ([3]; group (C): daily arginine silicate alone, eight and twelve weeks) was “significant improvement”, the “improvement in periodontal symptoms” value ([3]; group (C): daily arginine silicate alone, four weeks) was “minimal improvement” and the “reduction in symptoms of gingivitis” value ([4]; group (I): administered once-daily, eight and twelve weeks) was “most significant reduction”. For the same substance, the “reduction in symptoms of gingivitis” value ([4]; group (I): administered once-daily, four weeks) was “significant reduction”, the “reduction in symptoms of gingivitis” value ([4]; group (II): topically administered once-daily to the oral cavity, eight and twelve weeks) was “most significant reduction” and the “reduction in symptoms of gingivitis” value ([4]; group (II): topically administered once-daily to the oral cavity, four weeks) was “significant reduction”. For the same substance, the “levels for IL-1β and MPO in the ASI II group in comparison to the ASI I group” value ([5]; 3.62 vs 1.81 mg/kg of diet) was “significantly lower”, the “levels for IL-1β, MMP-8, RANK, RANKL, OPG, MPO in comparison to the periodontitis group” value ([5]; ASI groups (both doses)) was “significantly lower” and the IL-1β protein level ([5]; L + ASI I: 1.81 mg/kg of diet) was 142.5 ± 2.53^a,b. For the same substance, the MMP-8 protein level ([5]; L + ASI I: 1.81 mg/kg of diet) was 166.79 ± 7.86^a,b, the MPO protein level ([5]; L + ASI I: 1.81 mg/kg of diet) was 180 ± 2.97^a,b and the OPG protein level ([5]; L + ASI I: 1.81 mg/kg of diet) was 72.87 ± 4.67^a,b. The RANK protein level ([5]; L + ASI I: 1.81 mg/kg of diet) was 189.27 ± 5.3^a,b, the RANKL protein level ([5]; L + ASI I: 1.81 mg/kg of diet) was 150.11 ± 6.34^a,b and the IL-1β protein level ([5]; L + ASI II: 3.62 mg/kg of diet) was 111.24 ± 2.35^a,b,c. The MMP-8 protein level ([5]; L + ASI II: 3.62 mg/kg of diet) was 150.256 ± 11.6^a,b, the MPO protein level ([5]; L + ASI II: 3.62 mg/kg of diet) was 159.59 ± 13.09^a,b,c and the OPG protein level ([5]; L + ASI II: 3.62 mg/kg of diet) was 91.13 ± 3.04^a,b,c. For the same substance, the RANK protein level ([5]; L + ASI II: 3.62 mg/kg of diet) was 174.31 ± 9.82^a,b, the RANKL protein level ([5]; L + ASI II: 3.62 mg/kg of diet) was 138.35 ± 13.6^a,b and the serum calcium levels ([6]; ASI II group (3.62 mg/kg of diet)) was “significantly reduced”. The “serum CRP levels in comparison to the induced periodontitis group” value ([6]; ASI treatment groups (both doses)) was “significantly lower”, the “ALP (serum)” value [6, 7] was 440.31 ± 69.93 U/L and the “CRP (serum)” value [6, 7] was 0.16 ± 0.07^b mg/dl. The “Ca (serum)” value [6, 7] was 10.37 ± 0.32 mg/dL, the “P (serum)” value [6, 7] was 8.35 ± 1.82 mg/dL and the “ALP (serum)” value [6, 8] was 380.54 ± 85.36 U/L. For the same substance, the “CRP (serum)” value [6, 8] was 0.18 ± 0.06^b mg/dl, the “Ca (serum)” value [6, 8] was 9.78 ± 0.66^c mg/dl and the “P (serum)” value [6, 8] was 7.82 ± 1.61 mg/dL.
